Experimental data published in US20110189174A1, “COMPOSITIONS AND METHODS FOR TREATING, REDUCING, AMELIORATING, ALLEVIATING, OR INHIBITING PROGRESSION OF, PATHOGENIC OCULAR NEOVASCULARIZATION” (priority 2010, published 2011).

Tests used:
[1] = test system: human retinal endothelial cells (HREC); experiment: Testing 4: VEGF-induced HREC proliferation (MTS assay), Avastin with or without BOL-303050-X; assay type: cell-based
Description: HREC were first cultured overnight in a 96-well plate coated with fibronectin. The next day, cells were serum-starved for 2 hours before treatment. […] The cells were then cultured at 37° C., 5% CO2, and 95% humidity for another 3 days.
A 96-well plate was coated with human fibronectin (10 μg/ml) at 37° C. for 5 h. HREC were collected from flasks by EDTA-trypsin treatment and re-suspended in 10% FBS CS-C medium at 18,000 cells/ml. Cells (200 μl/well) were added to the plate and cultured overnight at 37° C., 5% CO2, and 95% humidity. The next day, medium was aspirated and 200 μl/well serum-free medium was added for 2 h at 37° C., 5% CO2, and 95% humidity.
Normal IgG was added in such a way that all groups contained the same amount of IgG proteins. All medium solutions were incubated for 1 h at 37° C., 5% CO2, and 95% humidity. After carefully aspirating the medium from cells, 200 μl of the medium containing different agents were added into appropriate wells. The cells were further cultured for 3 days.
At the end of incubation, the medium was carefully aspirated from cells and 120 μl of MTS working solution was added into all wells including four blank wells (without cells). The plate was incubated at 37° C., 5% CO2, and 95% humidity for 1 hour and then read by a plate reader at 490 nm wavelength.
Median optical density (OD) was generated from different groups. Data were expressed as mean±SEM of the OD values. Statistical analysis was performed using two-way ANOVA followed by the contrast procedure after Box-Cox transformations if needed, and p<0.05 was considered statistically significant. […] All the data from the individual wells were fitted to a re-parameterized four-parameter logistic equation to obtain IC50 using similar methodology as that previously described and utilizing the statistical analysis software JMP (SAS Institute, Cary, N.C.).

[2] = Clinical ophthalmic examination in monkeys (vitreal cell scores, anterior chamber inflammation); assay type: in vivo, cynomolgus monkeys (Macaca fascicularis); settings: for Vitreal cell score: number of eyes with grade 0 / Vitreal cell score: number of eyes with grade 1 / Vitreal cell score: number of eyes with grade 2 / Vitreal cell score: number of eyes with grade 3 / Vitreal cell score: number of eyes with grade 4 / Vitreal cell score: number of eyes with grade Trace: intravitreal days 1 and 15, cells not distinguishable from dispersed drug
Description: Once the phase Ib study was completed, and it was established that the drug suspension in oil would not interfere with either laser administration, evaluation of CNV or cause adverse effects, phase II was initiated. On days 1, and 15 both eyes of monkeys received 50 μL of Lucentis (0.5 mg/eye), vehicle (0 mg/eye), BOL-303050-X (1.5 mg/eye), BOL-303054-X (1.5 mg/eye) or BOL-303055-X (1.5 mg/eye) (Table 2). Intravitreous injection was performed for each by eye aiming towards mid-vitreous body. Dosing in the right eye was alternated for successive doses (as applicable) at approximately the 11 o'clock and 10 o'clock positions. Dosing in the left eye was alternated for successive doses (as applicable) from approximately the 1 o'clock and 2 o'clock positions.
Animals were examined at baseline, on days 1, 3, 7, 15, and 31 of Dosing Phase II and on the day of scheduled sacrifice (day 38). On days of dose administration the ophthalmic examination was done prior to dosing.

[3] = test system: human retinal endothelial cells (HREC); experiment: Testing 7: VEGF-induced HREC proliferation (MTS assay), integrin antagonists and Lucentis alone and in combination; assay type: cell-based
Description: HREC were first cultured overnight in a 96-well plate coated with fibronectin. The next day medium containing different agents as shown in Tables 14 and 15 was pre-incubated for 1 hour before being added into appropriate wells. The cells were cultured at 37° C., 5% CO2, and 95% humidity for another 3 days. After that, cell proliferation was estimated by the MTS assay. In the first study we used VEGF 10 ng/mL (about EC80 in study PH08169), Lucentis® 1 ng/mL (about EC25 in study PH09038) and 5 doses of BOL-303055-X. Normal IgG (1 ng/ml) was also added to groups containing no Lucentis®. All groups contained the same amount of 0.1% DMSO. In the second study, all five compounds (BOL-303049-X, BOL-303050-X, BOL-303051-X, BOL-303054-X and BOL-303055-X) were tested at 1 nM with other conditions remaining the same.
A 96-well plate was coated with human fibronectin (10 μg/mL) for 5 hours at 37° C. HREC were washed with HBSS buffer once, tripsinized and re-suspended in 10% FBS CS-C medium at 18,000 cells/mL. Cells (200 μL) were added to the plate and cultured overnight at 37° C., 5% CO2, and 95% humidity. Next day, the cells were serum-starved for 2 hours.
For study I, VEGF at 10 ng/mL, Lucentis® at 1 ng/mL and BOL-303055-X at 0.1, 0.3, 1, 3 and 10 nM were prepared in 1% FBS CS medium as shown in Table 14. Normal IgG (1 ng/mL) were added to groups containing no Lucentis®. All medium solutions were incubated for 1 hour at 37° C. After carefully medium was aspirated, 200 μL of the medium containing different agents were then added into appropriate wells. The cells were cultured for another 3 days. For the study II as shown in the Table 15, five compounds were tested at 1 nM with other conditions remaining the same as study I.
At the end of incubation, the medium was carefully aspirated from cells and 120 μl of MTS working solution was added into all wells including blank wells (without cells). The plates were incubated at 37° C., 5% CO2, and 95% humidity for 1 hour and then read by a plate reader at 490 nm wavelength.
Median optical density (OD) was generated from different groups. Data were expressed as mean±SEM of the OD values. Statistical analysis was performed using three-way ANOVA after Box-Cox transformations, and p<0.05 was considered statistically significant. To evaluate whether the effects of the combinations were either synergistic or additive, net inhibitions were calculated by subtracting the basal levels in the presence of VEGF from the individual treatments (Lucentis® and Integrin blockers) and the combinations. […] Data analysis was performed utilizing the statistical analysis software JMP (SAS Institute, Cary, N.C.).

[4] = study II, compound 1 nM, Lucentis 1 ng/mL

Compound	Vitreal cell score: number of eyes with grade 0 ([2]; Day 3)	Vitreal cell score: number of eyes with grade 1 ([2]; Day 3)	Vitreal cell score: number of eyes with grade 2 ([2]; Day 3)	Vitreal cell score: number of eyes with grade 3 ([2]; Day 3)	Vitreal cell score: number of eyes with grade 4 ([2]; Day 3)	Vitreal cell score: number of eyes with grade Trace ([2]; Day 3)	Vitreal cell score: number of eyes with grade 0 ([2]; Day 7)	Vitreal cell score: number of eyes with grade 1 ([2]; Day 7)	Vitreal cell score: number of eyes with grade 2 ([2]; Day 7)	Vitreal cell score: number of eyes with grade 3 ([2]; Day 7)	Vitreal cell score: number of eyes with grade 4 ([2]; Day 7)	Vitreal cell score: number of eyes with grade Trace ([2]; Day 7)	Vitreal cell score: number of eyes with grade 0 ([2]; Day 15)	Vitreal cell score: number of eyes with grade 1 ([2]; Day 15)	Vitreal cell score: number of eyes with grade 2 ([2]; Day 15)	Vitreal cell score: number of eyes with grade 3 ([2]; Day 15)	Vitreal cell score: number of eyes with grade 4 ([2]; Day 15)	Vitreal cell score: number of eyes with grade Trace ([2]; Day 15)	Vitreal cell score: number of eyes with grade 0 ([2]; Day 31)	Vitreal cell score: number of eyes with grade 1 ([2]; Day 31)	also measured
bevacizumab [Avastin, reference compound]																					Inhibition of VEGF-induced HREC proliferation by Avastin alone ([1]; 3-300 ng/ml, significant from 10 ng/ml): dose-dependent inhibition; IC50 of Avastin on VEGF-induced HREC proliferation ([1]; in the presence of BOL-303050-X 1 nM): 0.015 µg/mL; IC50 of Avastin on VEGF-induced HREC proliferation ([1]; in the presence of BOL-303050-X 10 nM): 0.013 µg/mL
CCc1nc(NC[C@H](NC(=O)OCc2ccccc2)C(=O)O)c(C)c(N2CCC(c3ccc4c(n3)NCCC4)CC2)n1 [BOL-303055-X]	11	1	0	0	0	6	0	3	6	3	1	5	0	7	3	1	3	4	5	2	Vitreal cell score: number of eyes with grade 2 ([2]; Day 31): 4; Vitreal cell score: number of eyes with grade 3 ([2]; Day 31): 0; Vitreal cell score: number of eyes with grade 4 ([2]; Day 31): 0; Vitreal cell score: number of eyes with grade Trace ([2]; Day 31): 7; Vitreal cell score: number of eyes with grade 0 ([2]; Day 38): 6; Vitreal cell score: number of eyes with grade 1 ([2]; Day 38): 5; Vitreal cell score: number of eyes with grade 2 ([2]; Day 38): 0; Vitreal cell score: number of eyes with grade 3 ([2]; Day 38): 0; Vitreal cell score: number of eyes with grade 4 ([2]; Day 38): 0; Vitreal cell score: number of eyes with grade Trace ([2]; Day 38): 7; HREC proliferation without VEGF ([3]; basal and Lucentis-treatment conditions, Lucentis 1 ng/mL, BOL-303055-X 0.1-10 nM, other compounds 1 nM): reduced HREC proliferation in a statistically significant and dose-dependent manner; Inhibiting effect on VEGF-induced HREC proliferation in the presence of Lucentis versus without ([3]; study I, 0.1, 0.3, 1, 3 and 10 nM, Lucentis 1 ng/mL): significantly greater inhibiting effect; Inhibition of VEGF-induced HREC proliferation, compound alone ([3]; study I, 0.1-10 nM, VEGF 10 ng/mL): inhibited VEGF-induced HREC proliferation in a dose-dependent manner; Combination effect with Lucentis on VEGF-induced HREC proliferation (synergistic/additive) ([3]; study I, compound 0.1 nM, Lucentis 1 ng/mL): synergistic effects; Combination effect with Lucentis on VEGF-induced HREC proliferation (synergistic/additive) ([3]; study I, compound 0.3 nM, Lucentis 1 ng/mL): additive; Combination effect with Lucentis on VEGF-induced HREC proliferation (synergistic/additive) ([3]; study I, compound 1, 3 and 10 nM, Lucentis 1 ng/mL): additive; Combination effect with Lucentis on VEGF-induced HREC proliferation (synergistic/additive) [3, 4]: additive effects; Enhancement of Avastin potency ([1]; compound at 1 nM): approximately 6 fold; Enhancement of Avastin potency ([1]; compound at 10 nM): ~7 fold
COc1c(NC[C@H](NC(=O)OCc2ccccc2)C(=O)O)ncnc1N1CCC(c2ccc3c(n2)NCCC3)CC1 [BOL-303054-X]	9	1	1	0	0	5	2	2	2	4	6	2	0	6	2	0	8	0	0	1	Vitreal cell score: number of eyes with grade 2 ([2]; Day 31): 8; Vitreal cell score: number of eyes with grade 3 ([2]; Day 31): 2; Vitreal cell score: number of eyes with grade 4 ([2]; Day 31): 6; Vitreal cell score: number of eyes with grade Trace ([2]; Day 31): 1; Vitreal cell score: number of eyes with grade 0 ([2]; Day 38): 0; Vitreal cell score: number of eyes with grade 1 ([2]; Day 38): 0; Vitreal cell score: number of eyes with grade 2 ([2]; Day 38): 3; Vitreal cell score: number of eyes with grade 3 ([2]; Day 38): 2; Vitreal cell score: number of eyes with grade 4 ([2]; Day 38): 13; Vitreal cell score: number of eyes with grade Trace ([2]; Day 38): 0; Anterior chamber inflammation ([2]; left eye of one monkey that developed endophthalmitis on day 29, until day 38): Moderate anterior chamber inflammation; Combination effect with Lucentis on VEGF-induced HREC proliferation (synergistic/additive) [3, 4]: additive effects
